Measured values taken from PubChem BioAssay AID651927 (Vanderbilt Specialized Chemistry Center, 2012).

Biological target: Muscarinic acetylcholine receptor M5 (Homo sapiens) (UniProt P08912)
Test: ACh response potentiation at M5 – CHO cells, human M5 (AID 651927)
Conditions: CHO-K1 hM5, Fluo-4 calcium flux, ACh EC20 potentiation

Muscarinic acetylcholine receptor M5 (Homo sapiens), sequence (P08912 whole entry, looked up): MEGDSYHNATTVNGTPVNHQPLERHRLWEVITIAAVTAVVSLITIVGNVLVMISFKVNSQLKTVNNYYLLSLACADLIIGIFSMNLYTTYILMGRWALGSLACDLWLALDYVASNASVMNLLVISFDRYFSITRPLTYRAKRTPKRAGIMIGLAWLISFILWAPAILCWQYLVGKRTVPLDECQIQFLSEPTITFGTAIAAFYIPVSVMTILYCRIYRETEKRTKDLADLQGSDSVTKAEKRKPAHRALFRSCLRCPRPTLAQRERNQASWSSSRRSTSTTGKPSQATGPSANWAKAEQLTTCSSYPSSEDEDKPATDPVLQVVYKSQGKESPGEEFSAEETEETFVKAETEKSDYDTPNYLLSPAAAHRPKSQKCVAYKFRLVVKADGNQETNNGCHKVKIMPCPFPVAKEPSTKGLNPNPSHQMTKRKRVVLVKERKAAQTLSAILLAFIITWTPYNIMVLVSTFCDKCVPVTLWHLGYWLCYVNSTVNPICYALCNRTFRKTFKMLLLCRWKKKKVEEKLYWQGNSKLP

- EC50: 0.589 µM
Compound: O=C1C(=O)N(CCOc2ccccc2)c2ccc(OC(F)(F)F)cc21
